Experimental findings from ChEMBL document CHEMBL3108773, “Antihyperglycemic glucosylated coumaroyltyramine derivatives from Teucrium viscidum” (J Nat Prod, 2014) are described below.

Series [1] is described as follows: Antihyperglycemic activity in mouse 3T3L1 cells assessed as stimulation of glucose consumption at 2 uM after 36 hrs by glucose oxidase assay in presence of high glucose condition relative to control. Type of series: functional, 3T3-L1.
The nature of series [2]: Cytotoxicity against mouse 3T3L1 cells assessed as cell viability up to 30 uM by MTT assay. The series is classed as cell-based. Particulars: 3t3-l1. A general note: Tetrazolium dyes change colour on reduction, which living cells bring about.
For series [3], the system named is HepG2. The series is described as follows: Antihyperglycemic activity in human HepG2 cells assessed as stimulation of glucose consumption at 2 uM after 36 hrs by glucose oxidase assay in presence of high glucose condition relative to control. The series is classed as functional.
Series [4] relates to HepG2. As to the kind of experiment: Cytotoxicity against human HepG2 cells assessed as cell viability up to 30 uM by MTT assay. Type of series: cell-based.

In the case of `COc1ccc(/C=C/C(=O)NCCc2ccc(O[C@@H]3O[C@@H](C)[C@H](OC(C)=O)[C@@H](O[C@@H]4O[C@H](CO)[C@@H](O)[C@H](O)[C@H]4O)[C@H]3O[C@@H]3O[C@H](COC(C)=O)[C@@H](O)[C@H](O)[C@H]3O)cc2)cc1`, the “fold change (FC)” value in series [1] is recorded as 1.6; in the series with HepG2 [3], 1.7. Besides, the Activity result (in series [2]; with HepG2 [4]) was “Non-toxic” in each case.
Regarding `COc1ccc(/C=C/C(=O)NCCc2ccc(O[C@@H]3O[C@@H](C)[C@H](OC(C)=O)[C@@H](O[C@@H]4O[C@H](CO)[C@@H](O)[C@H](O)[C@H]4O)[C@H]3O[C@@H]3O[C@H](CO)[C@@H](O)[C@H](O)[C@H]3O)cc2)cc1`, the “fold change (FC)” value (in series [1]; with HepG2 [3]) was 2.1 in each case. For the same molecule, the Activity entry (in series [2]; in the series on HepG2 [4]) was “Non-toxic” each time.
Turning to `COc1ccc(/C=C\C(=O)NCCc2ccc(O[C@@H]3O[C@@H](C)[C@H](O)[C@@H](O[C@@H]4O[C@H](CO)[C@@H](O)[C@H](O)[C@H]4O)[C@H]3O[C@@H]3O[C@H](CO)[C@@H](O)[C@H](O)[C@H]3O)cc2)cc1`, the “fold change (FC)” value is on record as 1.6 in series [1] and 1.7 in the series with HepG2 [3]. Further, the Activity entry (in series [2]; with HepG2 [4]) was “Non-toxic” each time.
As to `COc1ccc(/C=C\C(=O)NCCc2ccc(O[C@@H]3O[C@@H](C)[C@H](OC(C)=O)[C@@H](O[C@@H]4O[C@H](CO)[C@@H](O)[C@H](O)[C@H]4O)[C@H]3O[C@@H]3O[C@H](CO)[C@@H](O)[C@H](O)[C@H]3O)cc2)cc1`, the “fold change (FC)” value stood at 2.3 in series [1] and 2.2 in the series with HepG2 [3]. Moreover, the Activity entry (in series [2]; in the series on HepG2 [4]) was “Non-toxic” in each case.
For the molecule `COc1ccc(/C=C\C(=O)NCCc2ccc(O[C@@H]3O[C@@H](C)[C@H](OC(C)=O)[C@@H](O[C@@H]4O[C@H](COC(C)=O)[C@@H](O)[C@H](O)[C@H]4O)[C@H]3O[C@@H]3O[C@H](COC(C)=O)[C@@H](O)[C@H](O)[C@H]3O)cc2)cc1`, the “fold change (FC)” value in series [1] is given as 1.6; in the series with HepG2 [3], 1.7. For the same molecule, the Activity entry (in series [2]; in the series with HepG2 [4]) was “Non-toxic” each time.
For `COc1ccc(/C=C/C(=O)NCCc2ccc(O[C@@H]3O[C@@H](C)[C@H](OC(C)=O)[C@@H](O[C@@H]4O[C@H](COC(C)=O)[C@@H](O)[C@H](O)[C@H]4O)[C@H]3O[C@@H]3O[C@H](COC(C)=O)[C@@H](O)[C@H](O)[C@H]3O)cc2)cc1`, the results for the “fold change (FC)” value (in series [1]; in the series on HepG2 [3]) were 1.6 and 1.7, respectively. In addition, the Activity result (in series [2]; in the series with HepG2 [4]) was “Non-toxic” throughout.
Take `COc1ccc(/C=C\C(=O)NCCc2ccc(O[C@@H]3O[C@@H](C)[C@H](OC(C)=O)[C@@H](O[C@@H]4O[C@H](CO)[C@@H](O)[C@H](O)[C@H]4O)[C@H]3O[C@@H]3O[C@H](COC(C)=O)[C@@H](O)[C@H](O)[C@H]3O)cc2)cc1`: the “fold change (FC)” value in series [1] turned out to be 1.6; with HepG2 [3], 1.7. Further, the Activity entry (in series [2]; in the series on HepG2 [4]) was “Non-toxic” throughout.
With `COc1ccc(/C=C/C(=O)NCCc2ccc(O[C@@H]3O[C@@H](C)[C@H](O)[C@@H](O[C@@H]4O[C@H](CO)[C@@H](O)[C@H](O)[C@H]4O)[C@H]3O[C@@H]3O[C@H](CO)[C@@H](O)[C@H](O)[C@H]3O)cc2)cc1`, the “fold change (FC)” value is recorded as 2.5 in series [1] and 2.2 in the series with HepG2 [3]. Also, the Activity result (in series [2]; with HepG2 [4]) was “Non-toxic” throughout.
